“Also recorded” adds a separate entry of the source. Like-named read-outs stand apart in the source and are kept apart here. Marks after values point to notes of the source that are not given here.
Tests used:
[1] = Serum half-life of T3 after bolus injection in thyroidectomized rats; assay type: in vivo; settings: Sprague-Dawley, rat, intravenous, 1 ug
[2] = Serum T3, free T3 and T4 levels in hypothyroid (thyroidectomized) rats after T3 infusion or bolus injection (radioimmunoassay); assay type: in vivo, rat
Source text: FIG. 2. […] Three rats per each group.
Methods and Materials—Animal Studies. […] Results are expressed as means ±SE.

[3] = tested on: alpha-myosin heavy chain (alpha-MHC)
Method: FIG. 3A-3B. […] A: Representative agarose gel showing alpha-MHC hnRNA PCR products stained with ethidium bromide and visualized with ultraviolet light. PCR fragment size is 335 basepairs (bp). B: Quantification of hnRNA alpha-MHC 335 bp fragment from left ventricular RNA shown as a percentage of euthyroid (normal) values for three rats.
FIG. 4. […] Three 200 gram rats per each group.
FIG. 6. […] Hearts were removed after 3-4 days (24 hours after the last injection), and RNA was extracted from the left ventricles. Transcription was measured by quantitation of α-MHC hnRNA. The content of α-MHC hnRNA measured in these hearts is expressed as the percent of euthyroid (100%).
Methods and Materials—Animal Studies. Studies were conducted using adult Sprague-Dawley rats weighing between 180 and 225 g. Thyroidectomies were performed by surgical removal of the thyroid gland. […] After animals were sacrificed, the left ventricle of the heart was immediately frozen in liquid nitrogen and then treated for RNA extraction as previously described (Balkman et al. Endocrinology 130: 1002-6, 1992). Reverse transcription polymerase chain reaction (RT-PCR) assay of total left ventricular RNA for alpha-myosin heavy chain (alpha-MHC) heteronuclear (hn) RNA was carried out as previously described (Danzi and Klein, Thyroid 12(6): 467-72, 2002; Danzi et al. Am J Physiol Heart Circ Physiol. 284(6) :H2255-62, 2003). Results are expressed as means ±SE.
Expression of the cardiac- specific gene alpha-myosin heavy chain (alpha-MHC) is a sensitive indicator of normal cardiac function (Ojamaa et al. CVR&R 23: 20-6, 2002; Danzi et al. Am J Physiol Heart Circ Physiol. 284(6) :H2255-62, 2003; Danzi and Klein, Thyroid 12(6): 467-72, 2002; Ojamma and Klein, Endocrinology 132: 1002-6, 1993).

[4] = Heart rate after daily bolus administration of T3 in rats; assay type: in vivo, rat; settings: for T3max−Conmax: max HR T3 minus max HR saline control
[5] = hypothyroid rats, T3 infusion 7.0 μg/d, 1 week; cited from earlier work
[6] = rats (Goslings et al.); cited from earlier work
[7] = cited from earlier work
[8] = clinical; settings: human, in vivo, metabolic clearance rate (MCR) of T3
[9] = daily bolus T3 0.8 μg/200 gram rat, day 1
[10] = daily bolus T3 0.8 μg/200 gram rat, day 2
[11] = daily bolus T3 0.8 μg/200 gram rat, day 3
[12] = daily bolus T3 0.8 μg/200 gram rat, day 4
[13] = daily bolus T3 0.8 μg/200 gram rat, day 5
[14] = day 6, no dosing of T3 on this day
[15] = day 7, no dosing of T3 on this day

With `N[C@@H](Cc1cc(I)c(Oc2ccc(O)c(I)c2)c(I)c1)C(=O)O` [T3, triiodothyronine] as the compound, how does the half-life [1] read?
The half-life was 7 h.

And the concentration at 3 days ([2]; Sprague-Dawley, rat, serum, subcutaneous, 0.25 μg/d)?
The concentration at 3 days was 0.44 ± 0.03 ng/mL.

And the concentration at 3 days ([2]; Sprague-Dawley, rat, serum, subcutaneous, 0.8 μg/d)?
The concentration at 3 days was 0.78 ± 0.06 ng/mL.

And the concentration at 1 week ([2]; Sprague-Dawley, rat, serum, subcutaneous, 1 μg/d)?
The concentration at 1 week was 1.32 ± 0.14 ng/mL.

What about the “serum T3 levels versus normal” value ([2]; hypothyroid rats, 0.8 μg daily bolus injection, 24 hours after last injection) of the same compound?
Its value is “not effective in restoring serum T3 levels to normal”.

What about the “serum T3 levels versus normal” value ([2]; hypothyroid rats, 0.8 μg/day by subcutaneous miniosmotic pump infusion, blood sampled at 72) of the same compound?
The value was “restored to normal; also recorded: restores serum T3 levels to about normal”.

And the “serum T3 levels versus normal” value ([2]; hypothyroid rats, T3 infusion 0.25 μg/day and 0.5 μg/day)?
Its value is “elevates serum T3 above levels observed in thyroidectomized animals, but does not fully restore serum T3 levels to normal”.

And the “serum T3 levels versus normal” value ([2]; hypothyroid rats, T3 infusion at doses above 0.8 μg/day)?
Its value is “elevated serum T3 levels above normal”.

What about the “serum T3 levels versus normal” value ([2]; thyroidectomized rats, single bolus injection 1 μg T3/day for 7 days) of the same compound?
The value was “failed to restore serum T3 levels to normal”.

And the “alpha-MHC expression versus normal” value ([3]; hypothyroid rats, T3 infusion 0.25 and 0.5 μg/day)?
Its value is “normalization of alpha-MHC expression was observed”.

And the “alpha-myosin HC expression versus normal” value ([3]; hypothyroid rats, bolus daily injections 0.25-0.8 μg T3/day)?
The value was “not by bolus daily injections”.

And the “alpha-myosin HC expression versus normal” value ([3]; hypothyroid rats, constant infusion 0.25-0.8 μg T3/day, 3-4 days)?
The value was “restored to normal”.

And the alpha-MHC cardiac transcription ([3]; thyroidectomized rats, bolus injection 1 μg T3 each day for 2 days)?
Its alpha-MHC cardiac transcription is 60 % of normal.

What about the “alpha-MHC expression (hnRNA)” value ([3]; thyroidectomized rats, single bolus injection of 1 μg T3, time course) of the same compound?
Its value is “transient increase in alpha-MHC expression”.

And the “Δ HR” value ([4]; AVG of days 1-7)?
The value was 84.

What about the “min HR” value ([4]; AVG of days 1-7, P < 0.001 vs control) of the same compound?
The value was 307^+.

And the “max HR” value ([4]; AVG of days 1-7, P < 0.002 vs control)?
The value was 390^.

And the “maximum heart rate versus normal” value ([4]; bolus daily injections of T3 at 0.8 μg)?
The value was “increasing maximum heart rate above normal”.

What about the “max HR” value [4, 9] of the same compound?
The value was 345.

And the “min HR” value [4, 9]?
Its value is 270.

What about the “Δ HR” value [4, 9] of the same compound?
Its value is 75.

What about the “max HR” value [4, 10] of the same compound?
The value was 370.

And the “min HR” value [4, 10]?
The value was 315.

And the “Δ HR” value [4, 10]?
Its value is 55.

And the “max HR” value [4, 11]?
Its value is 385**.

What about the “min HR” value [4, 11] of the same compound?
Its value is 320.

What about the “Δ HR” value [4, 11] of the same compound?
Its value is 65.

What about the “max HR” value [4, 12] of the same compound?
The value was 410**.

What about the “min HR” value [4, 12] of the same compound?
The value was 320.

What about the “Δ HR” value [4, 12] of the same compound?
The value was 90.

And the “max HR” value [4, 13]?
Its value is 415**.

What about the “min HR” value [4, 13] of the same compound?
Its value is 300.

What about the “Δ HR” value [4, 13] of the same compound?
The value was 115.

What about the “max HR” value [4, 14] of the same compound?
Its value is 425*.

And the “min HR” value [4, 14]?
The value was 300*.

And the “Δ HR” value [4, 14]?
Its value is 125.

What about the “max HR” value [4, 15] of the same compound?
Its value is 380*.

And the “min HR” value [4, 15]?
The value was 325*.

And the “Δ HR” value [4, 15]?
Its value is 65.

What about the “T3max−Conmax” value ([4]; AVG) of the same compound?
The value was 43.

And the “T3max−Conmax” value ([4]; day 1)?
Its value is 0.

And the “T3max−Conmax” value ([4]; day 2)?
The value was 10.

What about the “T3max−Conmax” value ([4]; day 3) of the same compound?
The value was 45.

What about the “T3max−Conmax” value ([4]; day 4) of the same compound?
The value was 70.

And the “T3max−Conmax” value ([4]; day 5)?
The value was 65.

What about the “T3max−Conmax” value ([4]; day 6 (no T3 dosing)) of the same compound?
Its value is 70.

What about the “T3max−Conmax” value ([4]; day 7 (no T3 dosing)) of the same compound?
The value was 40.

And the “Heart weight/Body weight” value [5]?
The value was 3.64 ± 0.07^a.

What about the “metabolic clearance rate (MCR) of T3” value [6] of the same compound?
The value was 2.93 mL/min/kg.

And the “metabolic clearance rate (MCR) of T3” value ([7]; humans (Chopra and Sabatino))?
The value was 24 L/day/70 kg.

And the “metabolic clearance rate (MCR) of T3” value ([7]; hypothyroid humans (Bianchi et al.))?
The value was 11.4 L/day/m^2.

And the clearance [8]?
The clearance was roughly 0.217 mL/min/kg.

From US20050176829A1, “Methods for treating hypothyroidism” (priority 2003, published 2005)
